Tests used:
axial length extension = details: animal experiments; cited from earlier work
progress of myopia = details: reported in Taiwan; cited from earlier work
[1] = test system: chicken model of form-deprivation myopia; test: Axial length suppression test with chicken model of form-deprivation myopia (I), intravitreal injection; type: in vivo, chicks (white leghorn); details: hydroxyfasudil 20 μL intravitreally once a week (about 1 μM in the eye), four weeks after induction of myopia, N = 7, * P < 0.05 vs control
Source text: (§1) Chicks (white leghorn) 6 days of age were obtained, and one eye of each chick was covered with a mask hand-made of vinyl tape. The right eye of every chick was covered, and the left eye was used as a control. The chicks were kept under usual breeding conditions.
As a Rho kinase inhibitor, Y27632 dihydrochloride (made by Wako Pure Chemical Industries; see the above formula (I); hereinafter, abbreviated to “Y27632”) and hydroxyfasudil hydrochloride (made by SIGMA; see the above formula (III); hereinafter, abbreviated to “hydroxyfasudil”) were used. Y27632 was prepared at 50 μM in saline. Hydroxyfasudil was prepared at 1 mM in saline. To the control, saline was administered.
Into the vitreous chambers of the chicks to which myopia was being induced by the mask, Y27632 or hydroxyfasudil was injected once a week (every 7 days). Specifically, to the chicks under anesthesia with Ketalar (registered trademark) and Selactar (registered trademark), injection to a site about 2 mm off the corneal ring was performed with use of a syringe for insulin injection.
To the Y27632 treatment group, 50 μL of the 50 μM Y27632 solution was intravitreally injected. Since the chick eyeball volume is about 1 mL, the final concentration of Y27632 in the eye was about 2.5 μM. To a control group not treated with Y27632, 50 μL of saline was intravitreally injected.
To the hydroxyfasudil treatment group, 20 μL of a diluted hydroxyfasudil solution prepared by diluting 1 μL of the 1 mM hydroxyfasudil solution to 20 μL was intravitreally injected. Since the chick eyeball volume is about 1 mL, the final concentration of hydroxyfasudil in the eye was about 1 μM. To a control group not treated with hydroxyfasudil, 20 μL of saline was intravitreally injected.
(§2) Four weeks after the induction of myopia, the chicks were sacrificed. The eyeballs were enucleated and the right eyeball and the left eyeball were measured for the size with a caliper. The degree of axial myopia was evaluated based on the axial length and the greatest transverse diameter. The differences of the axial length and the greatest transverse diameter between the right eye and the left eye were calculated to indicate the degree of myopia. Between the groups treated with the above-mentioned drugs and the respective control groups, the degree of myopia induction was compared.

[2] = test system: chicken model of form-deprivation myopia; test: Axial length suppression test with chicken model of form-deprivation myopia (II), ophthalmic instillation; type: in vivo, chicks (white leghorn); details: hydroxyfasudil 500 nmol/1000 μL, 1 drop (about 5 μl) instilled once daily for 4 weeks, N = 10, * P < 0.05, t-test vs control
Source text: as §1, with “Chicken models of form-deprivation myopia were made in the same manner as in Example 1. That is, chicks” for “Chicks”
As a Rho kinase inhibitor, hydroxyfasudil hydrochloride (made by SIGMA; see the above formula (III); hereinafter, abbreviated to “hydroxyfasudil”) was used. Hydroxyfasudil was dissolved in BSS Plus (registered trademark, made by Alcon) so that the concentration was 10 mM, and 50 μL of this solution was diluted with saline to 1000 μL. A hydroxyfasudil solution at a concentration of 500 nmol/1000 μL was thus prepared.
To chicks to which myopia was being induced by the mask, hydroxyfasudil was instilled once daily for 4 weeks. Specifically, 1 drop (about 5 μl) of the above-mentioned hydroxyfasudil solution was instilled with use of a syringe with needle for insulin subcutaneous administration, “Low Dose” 30 G (made by Becton, Dickinson and Company). The instillation was performed to the right eye and the left eye.
To the control, BSS Plus was intravitreally injected once a week (every 7 days). Specifically, the intravitreal injection was performed to a superotemporal site about 3 mm off the corneal ring avoiding cartilage tissue of the lens and sclera with use of the above-mentioned “Low Dose”. The injection to the right eye and the left eye was performed 4 times in total.
as §2, with “right eyeballs” for “right eyeball”, “left eyeballs” for “left eyeball”, “the group” for “the groups”, “with hydroxyfasudil” for “with the above-mentioned drugs”, “the” for “the respective”, “control group,” for “control groups,”

form-deprivation myopia = details: animal experiment level; cited from earlier work
myopia = details: 2-year clinical trial, children aged 8 to 12; cited from earlier work

CN1[C@@H]2CC[C@H]1C[C@@H](OC(=O)C(CO)c1ccccc1)C2 (stereo partly shown) [Atropine]
Axial length extension (axial length extension): suppresses axial length extension
Progress of myopia (progress of myopia): statistically significant inhibition of the progress of myopia

O=S(=O)(c1cccc2c(O)nccc12)N1CCCNCC1 [Hydroxyfasudil, 1-(1-hydroxy-5-isoquinolinesulfonyl)homopiperazine]
Axial length, average right-left difference [1]: 0.37* mm
Greatest transverse diameter, average right-left difference [1]: 0.48* mm
Axial length, average right-left difference ([1]; listed as hydroxyfasudil): significantly reduced
Greatest transverse diameter, average right-left difference ([1]; listed as hydroxyfasudil): significantly reduced
Axial length, average right-left difference [2]: 0.61* mm
Greatest transverse diameter, average right-left difference [2]: 0.91* mm
Axial length, average right-left difference ([2]; listed as hydroxyfasudil): significantly reduced
Greatest transverse diameter, average right-left difference ([2]; listed as hydroxyfasudil): significantly reduced

CN1CCN(CC(=O)N2c3ccccc3C(=O)Nc3cccnc32)CC1 [Pirenzepine]
Form-deprivation myopia (axial length extension) (form-deprivation myopia): prevented form-deprivation myopia
Accommodative myopia (refraction of the lens) (myopia): significant difference
Axial length (myopia): no significant difference
